Data reported in ChEMBL document CHEMBL4616690, “Assembling Pharma Resources to Tackle Diseases of Underserved Populations” (ACS Med Chem Lett, 2020).

What was measured:
Wolbachia [1] = assay: Antibacterial activity against Wolbachia infected in insect cells; assay type: functional, organism-based
Wolbachia [2] = assay: Potency index, ratio IC50 for TylA to IC50 for compound for antibacterial activity against Wolbachia infected in insect cells; assay type: functional
Wolbachia [3] = assay: Potency index, ratio IC50 for doxycycline to IC50 for compound for antibacterial activity against Wolbachia infected in insect cells; assay type: functional

## CC[C@H]1OC(=O)C[C@@H](O)[C@H](C)[C@@H](O[C@@H]2O[C@H](C)[C@@H](O[C@H]3C[C@@](C)(O)[C@@H](OCc4ccc(F)cc4)[C@H](C)O3)[C@H](N(C)C)[C@H]2O)[C@@H](CC=O)C[C@@H](C)C(=O)/C=C/C(C)=C/[C@@H]1CO[C@@H]1O[C@H](C)[C@@H](O)[C@@H](OC)[C@H]1OC [FLUBENTYLOSIN]
Wolbachia [1]
  IC50: 0.02 nM
Wolbachia [2]
  Ratio IC50: >1000
Wolbachia [3]
  Ratio IC50: >1000
